Earlier results on 2 molecules are cited in US20220016054A1, “EPINEPHRINE PARENTERAL FORMULATIONS” (Somerset Therapeutics LLC, priority 2020, published 2022).

Data set [1] has as its system beta-adrenergic receptors.
The conditions of data set [2]: fraction of that of l-epinephrine.

For `CNCC(=O)c1ccc(O)c(O)c1` [adrenalone], the beta-adrenergic activity entry in data set [1] is recorded as “little if any beta-adrenergic activity”.

Turning to `CNC[C@H](O)c1ccc(O)c(O)c1` [d-epinephrine], in data set [2], the “pressor effect relative to l-epinephrine” value is “about one-fifteenth”.
